Series [1] in a line: in vitro. To be noted: human, hepatocytes.
Series [2] can be described thus: in vitro. To be noted: human.
Series [3] has as its target T1, C-C chemokine receptor type 1 (Homo sapiens, UniProt P32246).
T1 sequence (P32246 whole entry): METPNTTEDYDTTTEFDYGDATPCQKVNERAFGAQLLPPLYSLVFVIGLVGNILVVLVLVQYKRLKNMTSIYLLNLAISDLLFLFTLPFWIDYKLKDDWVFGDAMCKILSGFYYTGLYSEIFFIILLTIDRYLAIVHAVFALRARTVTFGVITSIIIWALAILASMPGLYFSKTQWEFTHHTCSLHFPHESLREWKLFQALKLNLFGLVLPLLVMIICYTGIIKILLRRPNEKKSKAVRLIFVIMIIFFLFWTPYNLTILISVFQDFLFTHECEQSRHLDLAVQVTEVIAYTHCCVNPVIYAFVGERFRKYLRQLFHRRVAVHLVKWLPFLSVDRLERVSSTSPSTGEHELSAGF
Kind of series: Displacement of [125I]MIP-1alpha from human recombinant CCR1 expressed in HEK293 cells after 1.5 hrs. The series is classed as cell-based. Background: Loss of bound radioactivity is the signal in a displacement assay; it reports binding, not function.

Series [4] can be described thus: in vitro. Particulars: human, Caco-2.
Series [5] is described as follows: in vitro. Particulars: rat, hepatocytes.
The nature of series [6]: Clearance in rat liver microsomes. The series is classed as ADME, Microsome. Particulars: read-out: CLH. In general terms: Liver microsomes are vesicles of endoplasmic reticulum, rich in cytochrome P450 enzymes.

The structures appear in SMILES notation.

As a reminder, the hepatocyte CLint is a measure of how fast metabolising enzymes remove a compound, apart from limits set by blood flow. Read a low hepatocyte CLint as slow turnover. One may read the IC50 as the concentration that inhibits the measured activity by half. By Papp is commonly meant the rate of passage across a membrane or cell layer, normalised by area and donor concentration. Low readings indicate poor permeation, high ones ready permeation.

With `CC(=O)Nc1ccccc1OC[C@@H](O)CN1CCC2(CC1)Cc1cc(Cl)ccc1O2`, the hepatocyte CLint is 2.5 µL/min/1e6 cells in the series “in vitro [1]” and 26 µL/min/1e6 cells in “in vitro [5]”. Further, in “in vitro [2]” (liver microsomes), the microsomal CLint is under 17 µL/min/mg. In addition, the IC50 in series [3] worked out at 960 pM. Also, the Papp in “in vitro [4]” was 26 ×10⁻⁶ cm/s.

Consider `COc1ccc(NC(C)=O)c(OC[C@@H](N)CN2CCC3(CC2)Cc2cc(F)ccc2O3)c1`, for which the hepatocyte CLint in “in vitro [1]” came out at 3.5 µL/min/1e6 cells. The compound further yielded a microsomal CLint in the series “in vitro [2]” (liver microsomes) of 17.4 µL/min/mg. Besides, the IC50 in series [3] turned out to be 9000 pM.

Take `CC(=O)Nc1ccc(O)cc1OC[C@@H](N)CN1CCC2(CC1)Cc1cc(Cl)ccc1O2`: the hepatocyte CLint in “in vitro [1]” is under 3 µL/min/1e6 cells; in “in vitro [5]” it was 4.2 µL/min/1e6 cells. For the same compound, the microsomal CLint (in “in vitro [2]” (liver microsomes); in series [6]) was under 10 µL/min/mg in each case. For the same compound, in series [3], the IC50 is 790 pM. In “in vitro [4]”, the Papp was determined as 2.7 ×10⁻⁶ cm/s.

For `CC(=O)Nc1ccc(F)cc1OC[C@@H](O)CN1CCC2(CC1)Cc1cc(F)ccc1O2`, the hepatocyte CLint was 9.3 µL/min/1e6 cells in the series “in vitro [1]” and 12 µL/min/1e6 cells in the series “in vitro [5]”. The results for the microsomal CLint (in the series “in vitro [2]” (liver microsomes); in series [6]) were 17.8 µL/min/mg and 29 µL/min/mg, respectively. Moreover, in series [3], the IC50 was determined as 360 pM. Besides, the Papp in “in vitro [4]” amounted to 18 ×10⁻⁶ cm/s.

In turn, `COc1ccc(NC(C)=O)c(OC[C@@H](N)CN2CCC3(CC2)Cc2cc(Cl)ccc2O3)c1` showed a microsomal CLint in the series “in vitro [2]” (liver microsomes) of 12.6 µL/min/mg. In series [3], the IC50 is 6000 pM.

Turning to `CC(=O)Nc1ccc(O)cc1OC[C@@H](N)CN1CCC2(CC1)Cc1ccccc1O2`, the hepatocyte CLint was under 3 µL/min/1e6 cells in “in vitro [1]” and 6.6 µL/min/1e6 cells in the series “in vitro [5]”. In addition, the microsomal CLint in the series “in vitro [2]” (liver microsomes) is under 10 µL/min/mg; in series [6] it was 14 µL/min/mg. Besides, in series [3], the IC50 is 18000 pM. The compound further yielded a Papp in “in vitro [4]” of 1.6 ×10⁻⁶ cm/s.

For `CC(=O)Nc1ccc(O)cc1OC[C@@H](N)CN1CCC2(CC1)Cc1cc(F)ccc1O2`, the hepatocyte CLint in “in vitro [1]” and in the series “in vitro [5]” was under 3 µL/min/1e6 cells throughout. Moreover, the microsomal CLint (in the series “in vitro [2]” (liver microsomes); in series [6]) was under 10 µL/min/mg in each case. In series [3], the IC50 is 1400 pM. The Papp in “in vitro [4]” came to 2.7 ×10⁻⁶ cm/s.

`COc1ccc(NC(C)=O)c(OC[C@@H](N)CN2CCC3(CC2)Cc2ccccc2O3)c1` had a microsomal CLint in the series “in vitro [2]” (liver microsomes) of 18.8 µL/min/mg. Also, in series [3], the IC50 is 32000 pM.

As to `CC(=O)Nc1ccc(O)cc1OC[C@@H](O)CN1CCC2(CC1)Cc1cc(Cl)ccc1O2`, the hepatocyte CLint in the series “in vitro [1]” is under 3 µL/min/1e6 cells; in “in vitro [5]”, 25.7 µL/min/1e6 cells. Moreover, in “in vitro [2]” (liver microsomes), the microsomal CLint was under 10 µL/min/mg.

`CC(=O)Nc1ccc(O)cc1OC[C@@H](O)CN1CCC2(CC1)Cc1cc(F)ccc1O2`: the hepatocyte CLint in the series “in vitro [1]” is under 3.6 µL/min/1e6 cells; in the series “in vitro [5]”, 17.6 µL/min/1e6 cells. The microsomal CLint in “in vitro [2]” (microsomes) is under 10 µL/min/mg. In “in vitro [4]”, the apparent permeability (Papp) was determined as 6.6 ×10⁻⁶ cm/s.

With `CC(=O)Nc1ccc(F)cc1OC[C@@H](O)CN1CCC2(CC1)Cc1cc(Cl)ccc1O2`, the figures for the hepatocyte CLint in “in vitro [1]” and in the series “in vitro [5]” were 6.1 µL/min/1e6 cells and 17.5 µL/min/1e6 cells, respectively. Further, in “in vitro [2]” (liver microsomes), the microsomal CLint stood at 13.5 µL/min/mg. In series [3], the IC50 stood at 640 pM. In “in vitro [4]”, the Papp was 17 ×10⁻⁶ cm/s.

As for `COc1ccc(NC(C)=O)c(OC[C@@H](O)CN2CCC3(CC2)Cc2cc(Cl)ccc2O3)c1`, in “in vitro [2]” (liver microsomes), the microsomal CLint was found to be 55 µL/min/mg. In addition, in series [3], the IC50 was 900 pM. In “in vitro [4]”, this compound had a Papp of 24.4 ×10⁻⁶ cm/s.

`CC(=O)Nc1ccccc1OC[C@@H](O)CN1CCC2(CC1)Cc1cc(F)ccc1O2` displayed an intrinsic metabolic clearance (hepatocyte CLint) in the series “in vitro [1]” of 11 µL/min/1e6 cells. This compound came in with a microsomal CLint in the series “in vitro [2]” (liver microsomes) of 25.5 µL/min/mg. The IC50 in series [3] was 960 pM. The Papp in the series “in vitro [4]” amounted to 16.5 ×10⁻⁶ cm/s.

(Values after ChEMBL document CHEMBL2331377, “Spirocyclic compounds, potent CCR1 antagonists” (Bioorg Med Chem Lett, 2013).)
